Like-named read-outs stand apart in the source and are kept apart here.
Experiments:
Hygroscopicity = type: physicochemical; settings: solid
Storage stability = type: physicochemical; settings: 23° C., seven days
[1] = test system: β-lactamase-producing bacteria; assay: Protection of ceforanide and amoxicillin from destruction; settings: in vitro and in vivo, in combination
[2] = Blood levels after oral administration to mice (Table 4); type: in vivo; settings: 100 mg/kg oral, 15 min, assay S. aureus A-9606
Bacteroides species = assay: Anti-Bacteroides activity, MIC by agar dilution (Table 2); type: cell-based
in vivo [3] = settings: mouse, po, 38 mg/kg
Excerpt: Compounds were solubilized in propylene glycol, except for the Hetacillin

C. freundii = assay: Antibacterial activity of ceforanide alone and with BL-P2013, MIC (Table 11); type: cell-based; settings: Citrobacter freundii; 1 strain; read-out: MIC
Excerpt: (§1) ^a Geometric mean value where applicable.

P. aeruginosa = assay: as above; type: cell-based; settings: Pseudomonas aeruginosa; 16 strains, geometric mean; read-out: MIC
Excerpt: as §1

S. marcescens = assay: as above; type: cell-based; settings: geometric mean
Excerpt: as §1

P. stuartii = assay: as above; type: cell-based; settings: Providencia stuartii
Excerpt: as §1

M. morganii = assay: as above; type: cell-based; settings: 8 strains (second line), geometric mean
Excerpt: as §1

E. aerogenes = assay: as above; type: cell-based; settings: Klebsiella aerogenes, read-out: MIC
Excerpt: as §1

Citrobacter sp. = assay: as above; type: cell-based; settings: 1 strain, read-out: MIC
Excerpt: as §1

[4] = mouse, in vivo, po, 38 mg/kg
E. coli A9675 = assay: Therapeutic efficacy of BL-P2043, BL-P2044 and components, oral, infected mice (Table 13); type: in vivo; settings: Escherichia coli, A9675, po, read-out: PD50/Treatment
B. thetaiotaomicron = assay: Anti-Bacteroides activity, MIC by agar dilution (Table 2); type: cell-based; settings: A22279, beta-lactamase +
Experimental: *Minimum inhibitory concentration (MIC) determined by the agar dilution
method using 50X dilutions of 24 hour cultures as inocula dispensed by th
Steer's inoculator. Assay medium composed of Brucella Agar plus 5% laked
sheep blood and 10 mcg/ml vitamin K.

in vivo [5] = settings: mouse, po, 38 mg/kg; remark: listed apart in the source

CC1(CCl)C(C(=O)O)N2C(=O)CC2S1(=O)=O (stereo not drawn) [BL-P2013 Free Acid, 2β-chloromethyl-2α-methylpenam-3α-carboxylic acid sulfone]
hygroscopicity (Hygroscopicity): hydroscopic
stability on storage (Storage stability): unstable when stored at 23 °C for seven days

CC1(CCl)C(C(=O)O)N2C(=O)CC2S1(=O)=O (stereo not drawn) [BL-P2013, Potassium 2β-Chloromethyl-2α-methylpenam-3α-carboxylate Sulfone]
protection of ceforanide and amoxicillin from destruction by β-lactamase-producing bacteria [1]: protected ceforanide and amoxicillin from destruction by β-lactamase-producing bacteria in vitro and in vivo
Blood Level [2]: 4600 ng/mL
MIC (Bacteroides species; A20927-1, beta-lactamase -): 63 µg/mL
MIC (Bacteroides species; A20933, beta-lactamase +): 63 µg/mL
AUC (in vivo [3]): 4400 ng·h/mL
concentration at 0.5 h (in vivo [3]): 2300 ng/mL
concentration at 2 h (in vivo [3]): 1600 ng/mL
MIC (C. freundii): > 125 µg/mL
MIC (P. aeruginosa): 125 µg/mL
MIC (S. marcescens; 6 strains): 125 µg/mL
MIC (S. marcescens; Serratia marcescens, 10 strains, read-out: MIC): 125 µg/mL
MIC (P. stuartii; 1 strain): 125 µg/mL
MIC (P. stuartii; 4 strains, geometric mean): 125 µg/mL
MIC (M. morganii): > 125 µg/mL
MIC (E. aerogenes; 1 strain): 16 µg/mL
MIC (E. aerogenes; 4 strains, geometric mean): > 125 µg/mL
MIC (E. aerogenes; 5 strains, geometric mean): > 125 µg/mL
MIC (Citrobacter sp.): 16 µg/mL
Blood Level ([4]; 0.5 h): 1800 ng/mL
Blood Level ([4]; 1 h): 1400 ng/mL
ED50 (E. coli A9675): > 50 mg/kg
MIC (B. thetaiotaomicron): 63 µg/mL
AUC (in vivo [5]; AUC): 4400 ng·h/mL
concentration at 0.5 h (in vivo [5]; Blood Level): 2300 ng/mL
